From patent publication US11834450B2, “Compounds having ((3-nitrophenyl)sulfonyl)acetamide as BCL-2 inhibitors” (Eil Therapeutics, Inc., priority 2021, dated 2023)

Tests used:
[1] = Cell viability assay HEK293 (CellTiter-Glo); assay type: cell-based; conditions: human, HEK293 cells, read-out: HEK293 (CC50 code)
Method in brief: (§1)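 Cells were seeded at 2000/well (HEK293, in DMEM, pre-incubated a day) or 4000/well (other lines, in RPMI-1640). Serially diluted compound was added and plates incubated 3 days at 37 °C, with viability read by CellTiter-Glo luminescence.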

[2] = system: caspase-3 and -7 activities in RS4-11 cells; assay: Cas-3/7 activation (Caspase-Glo 3/7) in RS4-11 cells; assay type: cell-based; conditions: Homo sapiens, 3.5 h at 37° C. and 30 min at r.t., read-out: Cas-3/7 (EC50 code)
Method in brief: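 RS4-11 cells were exposed to graded compound concentrations for 3.5 h at 37° C/5% CO2, then 30 min at room temperature. Caspase-3/7 activity was measured by luminescence after 30 min with a DEVD luminogenic substrate reagent.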

MOLT-4 cells = assay: Cell viability assay MOLT-4 (CellTiter-Glo); assay type: cell-based; conditions: Homo sapiens, 72 h; MOLT-4 cells, 3 days, CellTiter-Glo; read-out: MOLT-4 (CC50 code)
Method in brief: as §1

RS4-11 cells = assay: Cell viability assay RS4-11 (CellTiter-Glo); assay type: cell-based; conditions: Homo sapiens, 72 h; RS4-11 cells, 3 days, CellTiter-Glo; read-out: RS4-11 (CC50 code)
Method in brief: as §1

BCL-2 = target: T1, BCL-2 (Homo sapiens, UniProt P10415); assay: BCL-2 TR-FRET Assay (primary PPI inhibition); assay type: binding; conditions: 60 min incubation; read-out: BCL2 (IC50 code, BCL-2 TR-FRET)
T1 construct: purchased BPS Bioscience #50222

BCL-XL = target: T2, BCL-XL (Homo sapiens, UniProt Q07817); assay: BCL-XL TR-FRET Assay (primary PPI inhibition); assay type: binding; conditions: 60 min incubation; read-out: BCLxL (IC50 code, BCL-XL TR-FRET)
T2 construct: purchased BPS Bioscience #50223
Method in brief: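 10.5 ng His-tagged BCL-XL incubated 60 min with test compound, BCL-XL peptide ligand (1:80), Tb-labelled anti-His donor and dye-labelled acceptor (each 1:100). Displacement read as TR-FRET, excitation 340 nm, emission 620 and 665 nm, 60 μs delay, 500 μs integration.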

T1 sequence (P10415 whole entry): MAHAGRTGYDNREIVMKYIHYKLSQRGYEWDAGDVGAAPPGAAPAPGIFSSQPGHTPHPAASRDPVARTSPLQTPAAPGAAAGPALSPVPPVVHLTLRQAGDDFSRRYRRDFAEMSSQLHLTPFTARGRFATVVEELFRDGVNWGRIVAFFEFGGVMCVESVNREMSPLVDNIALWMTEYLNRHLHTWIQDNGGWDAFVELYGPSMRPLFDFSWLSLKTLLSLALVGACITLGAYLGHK
T2 sequence (Q07817 whole entry): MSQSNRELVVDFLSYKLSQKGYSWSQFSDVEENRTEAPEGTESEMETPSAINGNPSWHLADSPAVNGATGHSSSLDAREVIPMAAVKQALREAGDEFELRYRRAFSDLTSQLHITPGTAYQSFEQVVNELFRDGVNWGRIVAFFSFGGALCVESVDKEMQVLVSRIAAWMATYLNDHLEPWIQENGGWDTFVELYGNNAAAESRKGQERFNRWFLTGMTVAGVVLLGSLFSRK

Row | Structure (SMILES) | EC50 [2] [nM] | IC50 (BCL-2) [nM] | IC50 (BCL-XL) [nM] | CC50 at 3 days [1] [nM] | CC50 (MOLT-4 cells) [nM] | CC50 (RS4-11 cells) [nM]
1 | CC(C)C(=O)N1Cc2ccc(F)cc2C[C@H]1CN1CCN(c2ccc(C(=O)NS(=O)(=O)c3ccc(NCC4CCOCC4)c([N+](=O)[O-])c3)c(Oc3cnc4[nH]ccc4c3)c2)CC1 [Compound 45, 4-[4-[[(3S)-6-fluoro-2-(2-methylpropanoyl)-3,4-dihydro-1H-isoquinolin-3-yl]methyl]piperazin-1-yl]-N-[3-nitro-4-(tetrahydropyran-4-ylmethylamino)phenyl]sulfonyl-2-(1H-pyrrolo[2,3-b]pyridin-5-yloxy)benzamide] | > 250 | > 50 | > 4000 | > 25000 | > 10000 | > 200
2 | O=C(NS(=O)(=O)c1ccc(NCC2CCOCC2)c([N+](=O)[O-])c1)c1ccc(N2CCC(CN3Cc4ccccc4C4(CCC4)C3)CC2)cc1Oc1cnc2[nH]ccc2c1 [Compound 46, N-[3-nitro-4-(tetrahydropyran-4-ylmethylamino)phenyl]sulfonyl-2-(1H-pyrrolo[2,3-b]pyridin-5-yloxy)-4-[4-(spiro[1,3-dihydroisoquinoline-4,1′-cyclobutane]-2-ylmethyl)-1-piperidyl]benzamide] | > 250 | > 50 | > 4000 | > 25000 | 2000 to 10000 | > 200
3 | O=C(NS(=O)(=O)c1ccc(NCC2CCOCC2)c([N+](=O)[O-])c1)c1ccc(N2CCN(C[C@@H]3Cc4ccc(F)cc4CN3C(=O)C3CC3)CC2)cc1Oc1cnc2[nH]ccc2c1 [Compound 50, 4-[4-[[(3S)-2-(cyclopropanecarbonyl)-7-fluoro-3,4-dihydro-1H-isoquinolin-3-yl]methyl]piperazin-1-yl]-N-[3-nitro-4-(tetrahydropyran-4-ylmethylamino)phenyl]sulfonyl-2-(1H-pyrrolo[2,3-b]pyridin-5-yloxy)benzamide] | > 250 | > 50 | > 4000 | > 25000 | > 10000 | > 200
4 | O=C(NS(=O)(=O)c1ccc(NCC2CCOCC2)c([N+](=O)[O-])c1)c1ccc(N2CCC(Cn3c(-c4ccc(Cl)cc4)nc4cccnc43)CC2)cc1Oc1cnc2[nH]ccc2c1 [Compound 51, 4-[4-[[2-(4-chlorophenyl)imidazo[4,5-b]pyridin-3-yl]methyl]-1-piperidyl]-N-[3-nitro-4-(tetrahydropyran-4-ylmethylamino)phenyl]sulfonyl-2-(1H-pyrrolo[2,3-b]pyridin-5-yloxy)benzamide] | > 250 | 10 to 50 | > 4000 | > 25000 | 2000 to 10000 | > 200

Second part, led by results:

Row | EC50 [2] [nM] | IC50 (BCL-2) [nM] | IC50 (BCL-XL) [nM] | Structure (SMILES) | CC50 at 3 days [1] [nM] | CC50 (MOLT-4 cells) [nM] | CC50 (RS4-11 cells) [nM]
5 | > 250 | > 50 | > 4000 | CC(C)C(=O)N1Cc2cc(F)ccc2C[C@H]1CN1CCN(c2ccc(C(=O)NS(=O)(=O)c3ccc(NCC4CCOCC4)c([N+](=O)[O-])c3)c(Oc3cnc4[nH]ccc4c3)c2)CC1 [Compound 48, 4-[4-[[(3S)-7-fluoro-2-(2-methylpropanoyl)-3,4-dihydro-1H-isoquinolin-3-yl]methyl]piperazin-1-yl]-N-[3-nitro-4-(tetrahydropyran-4-ylmethylamino)phenyl]sulfonyl-2-(1H-pyrrolo[2,3-b]pyridin-5-yloxy)benzamide] | > 25000 | > 10000 | > 200
6 | > 250 | 10 to 50 | > 4000 | O=C(NS(=O)(=O)c1ccc(NCC2CCOCC2)c([N+](=O)[O-])c1)c1ccc(N2CCN(C[C@@H]3Cc4cc(F)ccc4CN3C(=O)C3CC3)CC2)cc1Oc1cnc2[nH]ccc2c1 [Compound 49, 4-[4-[[(3S)-2-(cyclopropanecarbonyl)-6-fluoro-3,4-dihydro-1H-isoquinolin-3-yl]methyl]piperazin-1-yl]-N-[3-nitro-4-(tetrahydropyran-4-ylmethylamino)phenyl]sulfonyl-2-(1H-pyrrolo[2,3-b]pyridin-5-yloxy)benzamide] | > 25000 | 2000 to 10000 | > 200
